ChEMBL document CHEMBL1201862, “PubChem BioAssay data set” (2004)
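Growth conditions: 96-well plates. Treatment: test compound, 48 hours, 5 concentrations. Analysis: linear interpolation between bracketing concentrations; unreached endpoints set to highest concentration. GI50 marks 50% less growth.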 Activity calls are given as the source filed them. No stated cut-off is given here; in the data, active = GI50 up to about 1.1 µM and inactive = higher.

Columns and labels:
Experiment in all cases: growth of human tumour cells (NCI), 48 h
786-0 = test system: 786-0
A549 = test system: A549
CAKI-1 = test system: CAKI-1
HOP-62 = test system: HOP-62
HOP-92 = test system: HOP-92
IGROV-1 = test system: IGROV-1
KM12 = test system: KM12
LOX IMVI = test system: LOX IMVI
MDA-MB-231 = test system: MDA-MB-231
Malme-3M = test system: Malme-3M
NCI-H522 = test system: NCI-H522
OVCAR-4 = test system: OVCAR-4
PC-3 = test system: PC-3
RPMI-8226 = test system: RPMI-8226
SF-295 = test system: SF-295
SK-MEL-5 = test system: SK-MEL-5
T47D = test system: T47D
UACC-257 = test system: UACC-257
UACC-62 = test system: UACC-62
SR = test system: SR

Measured: GI50

CC(Nc1cccc(Cl)c1)c1ccncc1 (configuration not stated)
inactive: 786-0 > 100 µM | A549 > 100 µM | CAKI-1 40.7 µM | HOP-62 > 100 µM | HOP-92 73.1 µM | IGROV-1 > 100 µM | KM12 > 100 µM | LOX IMVI > 100 µM | MDA-MB-231 > 100 µM | Malme-3M > 100 µM | NCI-H522 83.6 µM | OVCAR-4 > 100 µM | PC-3 30.5 µM | RPMI-8226 75.2 µM | SF-295 > 100 µM | SK-MEL-5 31.6 µM | T47D 27.4 µM | UACC-257 74.1 µM

Cn1c(=N)n[n+]([O-])c2ccccc21
inactive: 786-0 8.2 µM | A549 11.7 µM | CAKI-1 2.31 µM | HOP-62 2.52 µM | HOP-92 23.7 µM | IGROV-1 3.46 µM | KM12 19 µM | LOX IMVI 2.59 µM | MDA-MB-231 11.7 µM | Malme-3M 2.34 µM | NCI-H522 2.86 µM | OVCAR-4 1.94 µM | PC-3 6.28 µM | SF-295 3.54 µM | SK-MEL-5 1.59 µM | UACC-257 1.94 µM | UACC-62 1.75 µM

Cc1ccc(OCC2OC(n3cnc4c(N(C)C)nc(Br)nc43)CC2Oc2ccc(C)cc2)cc1 (configuration not stated)
inactive: 786-0 > 100 µM | A549 > 100 µM | CAKI-1 > 100 µM | HOP-92 > 100 µM | IGROV-1 > 100 µM | KM12 > 100 µM | LOX IMVI > 100 µM | MDA-MB-231 > 100 µM | Malme-3M > 100 µM | NCI-H522 > 100 µM | OVCAR-4 > 100 µM | PC-3 > 100 µM | RPMI-8226 58.2 µM | SF-295 > 100 µM | SK-MEL-5 > 100 µM | T47D > 100 µM | UACC-257 > 100 µM | UACC-62 > 100 µM

Clc1cccc(N/N=N/c2ccc(-c3nc4ccccc4s3)cc2)c1
inactive: 786-0 22.2 µM | A549 82.4 µM | CAKI-1 53.8 µM | HOP-62 > 100 µM | HOP-92 20.4 µM | IGROV-1 21.4 µM | KM12 > 100 µM | LOX IMVI 53 µM | Malme-3M 26.6 µM | NCI-H522 24.2 µM | OVCAR-4 46.9 µM | PC-3 41.6 µM | RPMI-8226 58.7 µM | SF-295 > 100 µM | SK-MEL-5 25.4 µM | SR 20.9 µM | T47D 47.9 µM | UACC-257 > 100 µM | UACC-62 25.2 µM

O=C(CSCC(=O)N/N=C/c1ccncc1)N/N=C/c1ccncc1
inactive: 786-0 > 100 µM | A549 > 100 µM | CAKI-1 > 100 µM | HOP-62 > 100 µM | HOP-92 > 100 µM | IGROV-1 > 100 µM | KM12 > 100 µM | LOX IMVI > 100 µM | MDA-MB-231 > 100 µM | Malme-3M > 100 µM | NCI-H522 > 100 µM | OVCAR-4 > 100 µM | PC-3 > 100 µM | RPMI-8226 > 100 µM | SF-295 > 100 µM | SK-MEL-5 > 100 µM | T47D > 100 µM | UACC-257 > 100 µM | UACC-62 > 100 µM

NC1c2c(Br)sc(N3CCCC3)c2C(=O)C1O (configuration not stated)
inactive: 786-0 > 50 µM | A549 > 50 µM | CAKI-1 > 50 µM | HOP-92 26.2 µM | IGROV-1 > 50 µM | KM12 > 50 µM | LOX IMVI > 50 µM | MDA-MB-231 29.1 µM | Malme-3M > 50 µM | NCI-H522 > 50 µM | OVCAR-4 > 50 µM | PC-3 > 50 µM | SF-295 > 50 µM | SK-MEL-5 > 50 µM | T47D > 50 µM | UACC-257 > 50 µM | UACC-62 > 50 µM

CC(=O)OC1CC[C@@]2(C)C(=CC[C@@H]3[C@@H]2CC[C@]2(C)C(OC(C)=O)[C@H](n4ccnc4)C[C@@H]32)C1 (some centres not stated)
inactive: 786-0 30.4 µM | A549 35.3 µM | CAKI-1 49.1 µM | HOP-92 97.5 µM | IGROV-1 34.4 µM | KM12 16.7 µM | LOX IMVI 18.7 µM | MDA-MB-231 37.2 µM | Malme-3M 14.6 µM | NCI-H522 14.4 µM | OVCAR-4 20.9 µM | PC-3 16.2 µM | RPMI-8226 17.3 µM | SF-295 31.7 µM | SK-MEL-5 16.3 µM | SR 16.1 µM | UACC-257 17.3 µM | UACC-62 16.1 µM

N#C/C(=C/C=C/c1ccco1)C(N)=O
inactive: 786-0 > 10 µM | CAKI-1 > 10 µM | HOP-62 > 10 µM | IGROV-1 > 10 µM | KM12 > 10 µM | LOX IMVI > 10 µM | MDA-MB-231 > 10 µM | Malme-3M > 10 µM | NCI-H522 > 10 µM | PC-3 > 10 µM | SF-295 > 10 µM | SK-MEL-5 > 10 µM | T47D > 10 µM

O=c1cc(-c2ccc(Cl)cc2)oc2cc(OCCCOc3ccc4c(=O)cc(-c5ccc(Cl)cc5)oc4c3)ccc12
inactive: 786-0 > 100 µM | A549 > 100 µM | CAKI-1 > 100 µM | HOP-62 > 100 µM | HOP-92 > 100 µM | IGROV-1 > 100 µM | KM12 > 100 µM | LOX IMVI > 100 µM | Malme-3M > 100 µM | NCI-H522 > 100 µM | OVCAR-4 > 100 µM | RPMI-8226 > 100 µM | SF-295 > 100 µM | SK-MEL-5 > 100 µM | SR > 100 µM | UACC-257 > 100 µM | UACC-62 > 100 µM

O=C(O)C1c2ccccc2C(C(=O)O)c2ccccc21 (configuration not stated)
inactive: 786-0 > 100 µM | A549 > 100 µM | CAKI-1 > 100 µM | HOP-62 > 100 µM | HOP-92 > 100 µM | IGROV-1 > 100 µM | KM12 > 100 µM | LOX IMVI > 100 µM | Malme-3M > 100 µM | NCI-H522 > 100 µM | OVCAR-4 > 100 µM | RPMI-8226 > 100 µM | SF-295 > 100 µM | SK-MEL-5 > 100 µM | SR > 100 µM | UACC-257 > 100 µM | UACC-62 > 100 µM

O=C(/C=C/c1ccc(Cl)cc1)Oc1ccc(C=C2CCC/C(=C\c3ccc(OC(=O)/C=C/c4ccc(Cl)cc4)cc3)C2=O)cc1
inactive: 786-0 > 100 µM | A549 > 100 µM | CAKI-1 > 100 µM | HOP-62 > 100 µM | HOP-92 > 100 µM | IGROV-1 > 100 µM | KM12 > 100 µM | LOX IMVI > 100 µM | MDA-MB-231 > 100 µM | Malme-3M > 100 µM | NCI-H522 > 100 µM | OVCAR-4 > 100 µM | PC-3 > 100 µM | RPMI-8226 > 45.9 µM | SF-295 > 100 µM | SK-MEL-5 > 100 µM | T47D > 100 µM | UACC-257 > 100 µM | UACC-62 > 100 µM
